Assay results reported in patent publication US10363229B2, “Methods and compositions for the treatment of cancer” (priority 2009, dated 2019).

Legend:
[1] = test system: E-cadherin, β-catenin, N-cadherin and vimentin in melanoma cells; assay: Immunofluorescence of E-cadherin, β-catenin, N-cadherin and vimentin (ETM transition); format: cell-based, mouse; conditions: 2% methyl sulfone, 1 week
Procedure: Cells were plated onto 12 mm coverslips. When cells grew to 60 to 70% confluence, 2% methyl sulfone was added to half the coverslips and normal medium to other half. […] PBS for 30 seconds and fixed in 37° C. 4% paraformaldehyde for 10 minutes. Cells were washed in PBS for 5 minutes and incubated in 1% Triton X-100/PBS for 5 minutes. To block nonspecific sites, chicken serum was diluted 1/20 in PBS and added to cells for 30 minutes. Cells were washed 3 times in 0.1% Triton X-100/PBS, 3 minutes each.
Rabbit anti-E-cadherin antibody (Santa Cruz Biotech, Calif.) was diluted 1/100 in 5% BSA/PBS and added to the cells on coverslips for 2 hours. Cells were washed 5 times in 0.1% Triton X-100/PBS, 3 minutes each. Secondary antibody, Alexa Fluor 488 chicken anti-rabbit was diluted 1/200 in 5% BSA/PBS and added to coverslips for one hour in the dark. Cells were washed five times in 0.1% Triton X-100/PBS, three minutes each. Cells were washed in PBS for one minute and placed in Hoechst (1 mg/ml), diluted 1/1000, for 5 minutes. Cells were washed in PBS for one minute. SlowFade was added to slides, coverslips were placed face down and sealed with nail polish. […]

[2] = test system: SKP2 and p27 in 66 and M3 cells; assay: Immunofluorescence of SKP2 and p27 in cancer cells (Example 2); format: cell-based, mouse; conditions: 2% methyl sulfone, four weeks
Text: SKP2 is a ubiquitin ligase that is active in cell nuclei and is expressed in many types of malignant cells. SKP2 promotes cell cycling and cell proliferation and promotes the degradation of the tumor suppressor protein p27. p27 is a tumor suppressor that is active when located in cell nuclei and in a non-phosphorylated form. p27 promotes cell cycle arrest and senescence.
In normal differentiated cells, p27 (non-phosphorylated active form) is located in the nucleus. […] This was confirmed in the experiments described below. The nuclei were stained with DAPI (blue) and corresponding p27 (red) or SKP2 (red), and then merged the p27/DAPI and SKP2/DAPI photos.
Cells were plated at 1×10^5 cells/ml on 12 mm round coverslips in 35 mm tissue culture plates (final volume of media was 1.5 ml/35 mm plate). At 24 hours after plating, media was replaced with fresh media containing 2% methyl sulfone and cells were incubated in media/2% methyl sulfone for four weeks. Media/2% methyl sulfone was changed every Monday, Wednesday, and Friday Immunofluorescence was performed at four weeks after plating to look for the presence of the following proteins: SKP2 and p27 (Santa Cruz Biotechnology). […]

Q: How did the “distribution of E-cadherin, β-catenin, N-cadherin and vimentin vs untreated” value [1] turn out when methyl sulfone was run?
A: no significant differences

Q: And the “SKP2 level and location” value [2]?
A: low levels of SKP2 in the cytoplasm

Q: What about the “p27 expression and location” value [2] of the same substance?
A: high expression of p27 in the nucleus
